Patent publication EP4759810A1, “PROTAC TARGETING BCL-XL PROTEIN AND USE THEREOF” (BEIJING SUNCELL BIO-MEDICAL CO., LTD., priority 2023, dated 2025)

Key:
[1] = Metabolic stability assay in liver microsomes (mouse); format: in vitro ADME
Procedure: (§1) The metabolic reaction of compounds in liver microsome was performed in a system with a total volume of 400 µL, and the following steps below were sequentially performed for the reaction and detection: 1) 200 µL of phosphate buffer (200 mM), 106 µL of sterile ultrapure water, and 40 µL of magnesium chloride solution (50 mM) were added to each detection tube to prepare a reaction working solution. 2) Two reaction systems with or without adding NADPH were prepared for each compound to be tested. For the reaction system with adding NADPH: 10 µL of liver microsomes (20 mg/mL) and 40 µL of NADPH (10 mM) were added to the above working solution; for the reaction system without adding NADPH: 10 µL of liver microsomes (20 mg/mL) and 40 µL of sterile ultrapure water were added to the above working solution. The final concentration of liver microsomes in both reaction systems was 0.5 mg/mL. 3) 4 µL of the compound to be tested ([…]) was added to each reaction tube, resulting in a final concentration of 1 µM for the compound in the reaction system. The detection tubes were placed at 37°C for reaction. 4) 50 µL samples were taken from each detection tube at 0, 15, 30, 45, and 60 minutes after adding the compound. The reaction was terminated by adding cold acetonitrile containing IS (100 nM alprazolam, 200 nM labetalol, 200 nM caffeine, and 2 µM ketoprofen) in a 4× volume. The samples were centrifuged at 3220 g for 40 minutes, 100 µL of the supernatant was mixed with 100 µL of ultrapure water, and a sample was taken for LC-MS/MS analysis.
(§2) Calculation of in vitro liver microsomal metabolic half-life and in vitro metabolic intrinsic clearance rate: The LC-MS detection results were analyzed to obtain the percentage of the remaining amount of the tested compound relative to the initial amount at each time point. The natural logarithm of the remaining percentage was linearly fitted against the incubation time.

[2] = test system: HEF cells; assay: Senescent cell killing activity test, HEF cell model (CCK-8); format: cell-based, human; conditions: for activity for killing senescent cells at lower concentrations compared to A-1331852: HEF cell model, 0.01 µM and 0.03 µM; for killing senescent HEF cells: etoposide-induced senescent vs normal HEF cells, Figures 3A-3F; for toxicity on normal non-senescent HEF cells: higher concentration (25 µM)
Procedure: (§3) To avoid replication of the induced senescent cells, low-passage proliferating HEF cells (<10 passages), MRC5 cells (<6 passages), and BJ cells (<10 passages) were used as normal controls. For chemical drug induced senescence, HEF cells were treated with 10 µM etoposide (Selleck, S1225) for 36-48 hours, MRC5 cells were treated with 5 µM bleomycin (Selleck, S1225) for 72 hours, and BJ cells were treated with 10 µg/mL bleomycin for 72 hours. Three days after the treatment, the cells were subcultured in fresh culture medium at a 1:3 ratio for 72 hours before further analysis and use.
(§4) Non-senescent and induced-senescent HEF cells, non-senescent and induced-senescent MRC5 cells, and non-senescent and induced-senescent BJ cells were respectively digested with trypsin, and centrifuged at 1000 rpm for 5 minutes. Then, the supernatant was removed, and the cells were resuspended in fresh DMEM culture medium containing 10% fetal bovine serum for counting. The cell density was adjusted so that the non-senescent cell density was 4000 cells/100 µL and the senescent cell density was 7000 cells/100 µL. 100 µL of the cell suspension was added to each well of a 96-well transparent cell culture plate. It was noted that the edge wells of the 96-well plate were not used as testing wells, and 300 µL of PBS alone was added to these wells to reduce evaporation of the culture medium. The 96-well plates with the well-plated cells were placed back in a 37°C incubator for overnight culture until the cells adhered. On the next day, the small molecule compounds to be tested were prepared and added after the cells had adhered.
(§5) A series of small molecule concentration gradients (0.01, 0.03, 0.1, 0.3, 1, 3, 10, and 25 µM) were pre-set, and a series of 2× drug dilutions for the above concentrations were prepared in DMEM culture medium containing 10% fetal bovine serum. 100 µL of the above DMEM culture medium containing the gradient concentrations of the drug was added to each well of the 96-well plate that had been well-plated with cells, so that the final drug concentration in each well was the pre-set series of concentrations. Three replicate wells were used for each test drug concentration. The 96-well plates were placed back in a 37°C incubator, and cell viability was measured after three days.
(§6) Three days after adding the drug, the plates were taken out, and the supernatant was discarded. 100 µL of pre-prepared CCK-8 working solution was added to each well. The CCK-8 working solution was obtained through diluting a CCK-8 stock solution (C0041, Beyotime) with a serum-free DMEM culture medium by 10-fold volumn. The 96-well plates containing the CCK-8 working solution were placed back in the 37°C incubator and incubated for 0.5-2 hours. The plates were then taken out, and the absorbance value (OD value) of each well was measured at a wavelength of 450 nm. The cell viability in each experimental group was calculated according to the following formula: Relative cell viability (%) = (Blank control group - Experimental group) / Blank control group × 100%.

[3] = Metabolic stability assay in liver microsomes (human); format: in vitro ADME
Procedure: as §1, §2

[4] = test system: BJ cells; assay: Senescent cell killing activity test, BJ cell model (CCK-8); format: cell-based, human; conditions: Figures 3M-3O
Procedure: as §3, §4, §5, §6

[5] = test system: MRC5 cells; assay: Senescent cell killing activity test, MRC5 cell model (CCK-8); format: cell-based, human
Procedure: as §3, §4, §5, §6

[6] = mouse liver microsomes 0.5 mg/mL, 1 µM compound, 37°C
[7] = human liver microsomes 0.5 mg/mL, 1 µM compound, 37°C

| Compound | Clint [1, 6] | half-life at 1 µM [1, 6] | microsomal CLint at 1 µM ([1]; mouse liver microsomes, read-out: clearance rate (metabolic clearance rate)) | activity for killing senescent cells at lower concentrations compared to A-1331852 [2] | killing senescent HEF cells [2] | toxicity on normal non-senescent HEF cells [2] | Clint [3, 7] | half-life at 1 µM [3, 7] | microsomal CLint at 1 µM ([3]; human liver microsomes, read-out: clearance rate (metabolic clearance rate)) | killing effects for senescent cells ([4]; bleomycin-induced senescent skin-derived BJ cell model) | killing effect for the normal early-passage BJ cells ([4]; normal BJ cells) | activity for killing senescent cells at lower concentrations compared to A-1331852 ([5]; 0.01 µM and 0.03 µM) | selectivity for senescent cells ([5]; Figures 3G-3L) |
| --- | --- | --- | --- | --- | --- | --- | --- | --- | --- | --- | --- | --- | --- |
| O=C1CCC(N2C(=O)c3cccc(NCCN4CCC(CN5CCN(CC#Cc6ccc(OCCCc7ccc(N8CCc9cccc(C(=O)Nc%10nc%11ccccc%11s%10)c9C8)nc7C(=O)O)c(F)c6)CC5)CC4)c3C2=O)C(=O)N1 (stereo not shown) [APQ2] | 4.30 µL/min/mg protein | 5.37 h | 4.3 µL/min/mg | better activity for killing senescent cells at lower concentrations | efficiently and selectively kill senescent HEF cells | no toxicity on normal non-senescent HEF cells | 2.77 µL/min/mg protein | 8.34 h | 2.77 µL/min/mg | – | – | – | – |
| O=C1CCN(c2ccc(N3CCC(CN4CCN(CC#Cc5ccc(OCCCc6ccc(N7CCc8cccc(C(=O)Nc9nc%10ccccc%10s9)c8C7)nc6C(=O)O)c(F)c5)CC4)CC3)cc2)C(=O)N1 [APQ10] | – | – | – | better activity for killing senescent cells at lower concentrations | efficiently and selectively kill senescent HEF cells | no toxicity on normal non-senescent HEF cells | – | – | – | highly selective and potent killing effects for senescent cells | without significant killing effect for the normal early-passage BJ cells | superior to that of A-1331852 | better selectivity for senescent cells |
